Measurements from US10041937B2, “Macrophage identification agent, and identification method, sorting method, evaluation method, screening method and kit using the macrophage identifier agent” (CANON KABUSHIKI KAISHA, priority 2013, dated 2018).
“Also recorded” adds a separate entry of the source.

Test system: M1 macrophages and M2 macrophages differentiated from mouse bone marrow cells
Assay: Subtype identification by staining and flow cytometry of M1 and M2 macrophages differentiated from mouse bone marrow cells
Format: cell-based, Balb/c mouse
Details: for subtype more strongly stained: two compounds used in combination, each 1 μM
Method: The culture of subtypes was performed according to a protocol described in NPL 7. Specifically, bone marrow cells collected from the femur of a Balb/c mouse of 8 to 10 weeks old were dispersed to a concentration of 1×10^6/mL in an IMDM containing 20% FBS and 1% P/S, and 1×10^7 cells were seeded in a 100 mm dish. After further adding an M-CSF (manufactured by Pepro Tech) thereto to a concentration of 50 ng/mL, the cells were incubated for 3 to 4 days in the presence of 5% CO2 at 37° C., so as to differentiate macrophage precursor cells to macrophages. After exchanging the medium, the M-CSF was added to a concentration of 50 ng/mL, and the incubation was performed for further 3 to 4 days in the presence of 5% CO2 at 37° C., and then, the resulting cells were differentiated to macrophage. By adding 200 ng of interferon-γ and 1 μg of […] (both manufactured by Pepro Tech) to the IMDM containing 5% FBS and 1% P/S, the cells were differentiated to the subtype M1. Besides, by adding 100 ng of IL-4 to the IMDM containing 5% FBS and 1% P/S, the cells were differentiated to the subtype M2. After performing the incubation for further 3 days in the presence of 5% CO2 at 37° C., the resultant was rinsed with PBS, and PBS containing 0.25% trypsin and 1 mM EDTA (ethylenediaminetetraacetic acid) was used for collecting, from the dish, the macrophages having been differentiated to the subtypes M1 and M2.
Thereafter, the tube was centrifuged at 180 G for 10 minutes to remove the supernatant, a dye for identifying dead cells (aqua fluorescent reactive dye, manufactured by Invitrogen; which is hereinafter sometimes abbreviated as aqua) was added thereto, and the resultant was incubated at 4° C. for 10 minutes. Subsequently, the tube was centrifuged at 180 G for 10 minutes to remove the supernatant, cells were suspended in a FACS buffer to be analyzed by using FACSCanto (trademark) II flow cytometry apparatus manufactured by BD.
The analysis was performed on a cell population showing a low signal for the aqua, so as to analyze a cell population from which dead cells were eliminated. […] A histogram was prepared by plotting fluorescence intensity obtained in the FITC channel on the abscissa and plotting the number of cells at each fluorescence intensity on the ordinate, which is shown in FIG. 2.
Histograms were prepared by plotting fluorescence intensities obtained in the respective channels on the abscissa and plotting the numbers of cells at each fluorescence intensity on the ordinate. A difference between a fluorescence intensity (FM1) at a peak top of the histogram of the M1 macrophage and a fluorescence intensity (FM2) at a peak top of the histogram of the M2 macrophage is divided by a sum of a peak width (WM1) of the histogram of the M1 macrophage and a peak width (WM2) of the histogram of the M2 macrophage, so as to obtain a resolution R, which was used as an index of the identification ability for a subtype (see the following expression (1)). Resolution R=|FM1−FM2|/(WM1+WM2) Expression (1)

[1] = R=|FM1−FM2|/(WM1+WM2), compound 1 μM
[2] = fluorescence intensity at peak top of histogram, compound 1 μM, 37° C., 30 minutes
[3] = M1 vs M2 macrophages from mouse bone marrow cells, general formula (11) dyes (Table 9)
[4] = class based on resolution R, general formula (11) dyes (Table 9)
[5] = mouse bone marrow-derived M1 macrophages, channel listed per compound, general formula (11) dyes (Table 9)
[6] = mouse bone marrow-derived M2 macrophages, channel listed per compound, general formula (11) dyes (Table 9)
[7] = M1 vs M2 macrophages from mouse bone marrow cells, general formula (6) dyes (Table 7)
[8] = class based on resolution R, general formula (6) dyes (Table 7)
[9] = mouse bone marrow-derived M1 macrophages, channel listed per compound, general formula (6) dyes (Table 7)
[10] = mouse bone marrow-derived M2 macrophages, channel listed per compound, general formula (6) dyes (Table 7)

Compound	Resolution ratio R [1]	Peak position of M1 macrophage [2]	Peak position of M2 macrophage [2]	Evaluation of macrophage subtype identification (rated from resolution R)	also measured
COc1ccc2cc(N3c4ccc(/C=C5/SC(=S)N(CCC(=O)O)C5=O)cc4C4CCCC43)ccc2c1 (stereo not shown) [(22)]	0.389	199	313	B (the compound is good in the subtype identification (namely, the resolution R is 0.15 or more and less than 0.5))	–
COc1ccc(N2c3ccc(/C=C4\C(=O)N(c5ccccc5)N=C4C(=O)O)cc3C3CCCC32)cc1 (stereo not shown) [compound (33)]	0.522	5.00	9.05	A (The compound is very good in the subtype identification (namely, the resolution R is 0.5 or more))	subtype more strongly stained: the M2 macrophages are more strongly stained than the M1 macrophages
CCOC(=O)CN1C(=O)/C(=C\c2ccc3c(c2)C2CCCC2N3c2ccccc2)SC1=S (stereo not shown) [(48)]	0.621	65.4	9.74	A (The compound is very good in the subtype identification (namely, the resolution R is 0.5 or more))	–
CC1=CC(C)=[N+]2C1=C(c1ccccc1)c1c(C)cc(C)n1[B-]2(F)F [(148)]	–	–	–	–	Resolution ratio R [3]: 0.193; Evaluation of macrophage subtype identification [4]: B (the compound is good in the subtype identification (namely, the resolution R is 0.15 or more and less than 0.5)); Peak position of M1 macrophage [5]: 109; Peak position of M2 macrophage [6]: 151
CCN(CC)c1ccc2cc(-c3nc4ccccc4[nH]3)c(=O)oc2c1 [(131)]	–	–	–	–	Resolution ratio R (M1 vs M2 macrophages from mouse bone marrow cells, general formula (10) dyes (Table 8)): 0.480; Evaluation of macrophage subtype identification (class based on resolution R, general formula (10) dyes (Table 8)): B (the compound is good in the subtype identification (namely, the resolution R is 0.15 or more and less than 0.5)); Peak position of M1 macrophage (mouse bone marrow-derived M1 macrophages, channel listed per compound, general formula (10) dyes (Table 8)): 8.06; Peak position of M2 macrophage (mouse bone marrow-derived M2 macrophages, channel listed per compound, general formula (10) dyes (Table 8)): 13.5
COc1ccc2cc(N3c4ccc(/C=C5\C(=O)N(c6ccc(C(=O)O)cc6)N=C5C)cc4C4CCCC43)ccc2c1 (stereo not shown) [(36)]	0.344	5.70	3.82	B (the compound is good in the subtype identification (namely, the resolution R is 0.15 or more and less than 0.5))	–
CC1=NN(c2ccc(C(=O)O)cc2)C(=O)/C1=C\c1ccc2c(c1)C1CCCC1N2c1ccccc1 (stereo not shown) [(35)]	0.192	1.15	1.29	B (the compound is good in the subtype identification (namely, the resolution R is 0.15 or more and less than 0.5))	–
CCOC(=O)Cn1c(=O)/c(=C\c2ccc3c(c2)C2CCCC2N3Cc2ccccc2)s/c1=C1/SC(=O)N(CC)C1=O (stereo not shown) [(42)]	0.616	4.19	1.79	A (The compound is very good in the subtype identification (namely, the resolution R is 0.5 or more))	–
CCN1/C(=C\C=C\C2=[N+](CC)c3ccccc3C23CCCCC3)C2(CCCCC2)c2ccccc21 [(99)]	–	–	–	–	Resolution ratio R [7]: 0.673; Evaluation of macrophage subtype identification [8]: A (The compound is very good in the subtype identification (namely, the resolution R is 0.5 or more)); Peak position of M1 macrophage [9]: 191.14; Peak position of M2 macrophage [10]: 331.51
O=C(O)CCN1C(=O)/C(=C\c2cc(Br)c3c(c2)C2CCCC2N3c2ccc(Br)cc2)SC1=S (stereo not shown) [(11)]	0.544	30.5	16.2	A (The compound is very good in the subtype identification (namely, the resolution R is 0.5 or more))	–
CN1/C(=C/C2=C([O-])C(=C/C3=[N+](C)c4ccccc4C3(C)C)/C2=O)C(C)(C)c2ccccc21 [compound (113)]	–	–	–	–	Resolution ratio R [7]: 0.857; Evaluation of macrophage subtype identification [8]: A (The compound is very good in the subtype identification (namely, the resolution R is 0.5 or more)); Peak position of M1 macrophage [9]: 9.05; Peak position of M2 macrophage [10]: 21.39; subtype more strongly stained: the M2 macrophage shows a higher fluorescence intensity in the APC-Cy7 channel than the M1 macrophage; also recorded: the M2 macrophages are more strongly stained than the M1 macrophages
CCN1c2ccc(/C=C/C=C3/SC(=S)N(CCC(=O)O)C3=O)cc2C2CCCC21 (stereo not shown) [(76)]	0.283	7.77	10.5	B (the compound is good in the subtype identification (namely, the resolution R is 0.15 or more and less than 0.5))	–
CC1(C)C(/C=C/c2ccc3c(c2)C2CCCC2N3c2ccc(C=C(c3ccccc3)c3ccccc3)cc2)=[N+](CCC(=O)O)c2ccccc21 (stereo not shown) [(59)]	0.733	188	325	A (The compound is very good in the subtype identification (namely, the resolution R is 0.5 or more))	–
O=C(O)CN1C(=O)/C(=C\c2ccc3c(c2)C2CCCC2N3Cc2ccccc2)SC1=S (stereo not shown) [(28)]	0.431	9.54	15.8	B (the compound is good in the subtype identification (namely, the resolution R is 0.15 or more and less than 0.5))	–
CN1\C(=C/C=C/C=C/C2=[N+](C)c3ccc4ccccc4c3C2(C)C)C(C)(C)c2c1ccc1ccccc21 [(92)]	–	–	–	–	Resolution ratio R [7]: 0.534; Evaluation of macrophage subtype identification [8]: A (The compound is very good in the subtype identification (namely, the resolution R is 0.5 or more)); Peak position of M1 macrophage [9]: 2.27; Peak position of M2 macrophage [10]: 3.9
CC1(C)C(/C=C/C=C/C=C/C=C2\N(CCCCS(=O)(=O)[O-])c3ccccc3C2(C)C)=[N+](CCCCS(=O)(=O)[O-])c2ccccc21.[Na+] [(90)]	–	–	–	–	Resolution ratio R [7]: 0.321; Evaluation of macrophage subtype identification [8]: B (the compound is good in the subtype identification (namely, the resolution R is 0.15 or more and less than 0.5)); Peak position of M1 macrophage [9]: 0.86; Peak position of M2 macrophage [10]: 1.31
Cc1cc(C)n2c1C=C1C=CC(CCC(=O)O)=[N+]1[B-]2(F)F [(157)]	–	–	–	–	Resolution ratio R [3]: 0.637; Evaluation of macrophage subtype identification [4]: A (The compound is very good in the subtype identification (namely, the resolution R is 0.5 or more)); Peak position of M1 macrophage [5]: 2.57; Peak position of M2 macrophage [6]: 5.62
